The record followed here is patent publication US11730712B2, “Functionalized long-chain hydrocarbon mono- and di-carboxylic acids and derivatives thereof, and their use for the prevention or treatment of disease” (ESPERVITA THERAPEUTICS, INC., priority 2021, dated 2023).

One series deals with C57BL/6 mice with UUO. The series can be described thus: Murine unilateral ureter obstruction (UUO) renal fibrosis model. Format: in vivo, mouse. Particulars: 100 mg/kg daily oral gavage, 9 days after UUO. The method, then: Animal studies were carried out in accordance with the principles of laboratory animal care of the Canadian Council on Animal Care guidelines. Male C57BL/6 mice were obtained from Charles Rivers Laboratories. FIG. 13A summarizes the timeline for this experiment. UUO model was created as follows: male C57BL6J mice (8 weeks old from Charles River Laboratories) were anesthetized with 4% isofluorane and an anesthetic plane was maintained throughout surgery at 1.5-2% isofluorane with 1 L/min oxygen. A 0.5 cm incision was made longitudinally on the left flank. The left ureter and lower pole of the kidney was exposed, and the ureter was ligated with a […] in close proximity to the renal pelvis. A sham operation control group was created by surgical exposure of the left ureter and lower pole of the kidney followed by closure of the incision. Subcutaneous fluids were given (1.5 ml 0.9% NaCl) and the incision was closed with 4′0 silk sutures followed by staples for the skin. Starting the day of model creation, the animals were given a daily dose of either vehicle alone (sham surgery and UUO control, 1.5% CMC and 0.2% Tween-20) or vehicle containing Compound I-32 or Compound I-1 (at 100 mg/kg) by oral gavage for 9 days following surgery. At the end of the treatment period mice were anesthetized prior to euthanasia by bilateral thoraco-abdominal incision. Blood was collected by cardiac puncture, followed by kidney perfusion with cold saline through left ventricular cannulation. The left kidney was removed, a sample taken and fixed in formalin for histological analysis. Trichrome staining was done on formalin-fixed sections (4 μm) following deparaffinization according to manufacturers instructions (Sigma HT15-1KT). Images were quantified by measuring the percentage of positive area using Image J on micrographs captured at ×200 magnification using the BX41 Olympus microscope. Statistical analysis was performed using GraphPad Prism 8. A one-way ANOVA was used to determine significance. A p-value of less than or equal to 0.05 was used as the criterion of significance. This route was selected because it simulates oral administration to mammalian, including human, subjects and ensures that the correct dose of compound is ingested by each animal.
Immunohistochemistry. Formalin-fixed kidneys were embedded in paraffin, then sectioned at 4 μm. After deparaffinization, they were stained with Masson's trichrome to assess collagen content (Sigma Aldrich, catalogue no. HT15-1T), picrosirius red (PSR) to more specifically assess pathogenic collagens I and III (Polysciences, Inc., catalogue no. 24901-500), αSMA as a marker of activated, profibrotic fibroblasts (PIERCE, catalogue no. MA1-06110; 30 min steaming for antigen retrieval, antibody used at 1:5000 for 2 h at room temperature), CD3 to identify T-lymphocytes (Dako, catalogue no. A0452; 30 min steaming for antigen retrieval, antibody used at 1:500 overnight at 4° C.) and F4/80 to identify, macrophages (done by the McMaster Histology Facility). Slides were counterstained with hematoxylin, dehydrated twice with 90% ethanol, cleared twice with xylene, coverslipped with mounting media, and then left to dry overnight before imaging. Masson's trichrome, αSMA, CD3 and F4/80 were imaged under transmitted light and quantified using ImageJ. The Olympus IX81 fluorescence microscope driven by Metamorph was used to image and quantify PSR staining. Images were quantified by measuring the percentage of positive area. All micrographs were captured at ×20 magnification.

Series [1] in a line: Toxicokinetics in female rat plasma (4-day oral gavage study, Day 1). Format: in vivo. Particulars: for dose proportionality of increases in mean Cmax and AUC0-24: 100 to 300 mg/kg/day. The method, then: Bioanalytical and Toxicokinetic Analyses. Blood samples (approximately 0.3 mL) were collected from nonfasted toxicokinetic animals via a jugular vein on Day 1 of the dosing phase, as indicated in the following table. Samples were collected predose and approximately 1, 2, 4, and 24 hours postdose.
Blood was collected into tubes containing potassium (K2) EDTA as the anticoagulant. Samples were maintained on chilled cryoracks and were centrifuged within 1 hour of collection. Plasma was harvested into two approximately equal aliquots and stored on dry ice until placed in a freezer, set to maintain −60 to −80° C., until analyzed. Plasma samples were analyzed for Compound I-1 and Compound I-32 content using a generic Tier 1 qualified liquid chromatography-tandem mass spectrometry (LC-MS/MS) method.
In-Life Phase. Animals were dosed once daily for up to 4 days via oral gavage at a volume of 10 mL/kg. Animals in Group 2 and 3 were administered Compound I-1. Animals in Group 4 and 5 were administered Compound I-32. The control article for Group 1 was 1.5% (w/v) carboxymethyl cellulose+0.2% (v/v) Tween 20 in deionized (DI) water. The vehicle used to prepare Compound I-1 and Compound I-32 formulations was 3% (w/v) carboxymethyl cellulose+0.4% (v/v) Tween 20 in DI water.

A further series has as its system C57BL6/J mice. The experiment in a line: Indirect calorimetry (CLAMS) in fructose-fed C57BL6 mice. Format: in vivo, mouse. Particulars: 100 mg/kg oral gavage, refed mice with RER >1. The method, then: Materials and Methods. All experiments were carried out using the methods approved by the Animal Research Ethics Board at McMaster University, Canada (Steinberg Laboratory Animal Utilization Protocol #16-12-42). 8-Week-old male C57BL6/J mice were ordered from Jackson Laboratory, Bar Harbor, Me. and housed at the McMaster University Central Animal Facility. Animals were housed in the ventilated cages racks system and provided with ad libitum access to normal chow diet (Teklad 8640 22/5 rodent diet, procured from Envigo, Mississauga ON) and water supplemented with fructose (30% weight/volume, made fresh weekly) for at least 2-weeks before testing commenced. […] Data were analyzed using one-way analyses of variance followed by a Tukey's multiple comparisons post hoc test where appropriate. […]
Experimental and Results. Respiratory Exchange Ratio (RER) and related metabolic parameters were measured using the Comprehensive Lab Animal Monitoring System (CLAMS, Columbus Instruments, Columbus, Ohio). […] RER was monitored and those animals with RER values >1 were administered either vehicle (1.5% Carboxymethyl cellulose and 0.2% Tween 20) alone or vehicle containing Compound I-1 or Compound I-32 at a dose of 100 mg/kg via oral gavage. Animals remained in the metabolic cages and RER, activity level, locomotor activity, and food intake were monitored for 24 hours. […]

Setting [2] is: female rat plasma, 100 mg/kg/day oral gavage, Day 1.

In the case of `CC(C)(CCCCc1cccc(CCCCC(C)(C)C(=O)O)c1)C(=O)O` [Compound I-32, 6-[3-(5-carboxy-5-methylhexyl)-phenyl]-2,2-dimethylhexanoic acid], in the series on C57BL/6 mice with UUO, the “T-lymphocyte infiltration (CD3 stain)” value is “no effect on T-lymphocytes”; the “UUO-induced increases in Trichrome and αSMA (renal fibrosis)” value is “trend to reduction”; the “macrophage infiltration (F4/80 stain)” value is listed as “significantly reduced macrophage infiltration”. Further, in series [1] (Wistar Han, plasma, oral, female rat, 300 mg/kg/day, Day 1, read-out: mean maximum observed concentration (Cmax)), the Cmax was determined as 406 µg/mL. The “dose proportionality of increases in mean Cmax and AUC0-24” value in series [1] (female rat) is on record as “approximately dose proportional”. Further, the “Respiratory Exchange Ratio (RER) compared to vehicle treated group” value in the series with C57BL6/J mice is given as “significant reduction in the RER”.
As to `CC(C)(CCCCc1ccc(CCCCC(C)(C)C(=O)O)cc1)C(=O)O` [Compound I-1, 6-[4-(5-carboxy-5-methylhexyl)-phenyl]-2,2-dimethylhexanoic acid], in the series with C57BL/6 mice with UUO, the “T-lymphocyte infiltration (CD3 stain)” value is listed as “no effect on T-lymphocytes”; the “UUO-induced increases in Trichrome and αSMA (renal fibrosis)” value was “decreased”; the “macrophage infiltration (F4/80 stain)” value is recorded as “significantly reduced macrophage infiltration”. In series [1] (setting [2]), the AUC0-24 is 5,460,000 h*ng/mL and the time to peak (Tmax) is recorded as 2.00 h. For the same molecule, the Tmax in series [1] (female rat plasma, 300 mg/kg/day oral gavage, Day 1) is recorded as 1.00 h. In series [1] (female rat), the “dose proportionality of increases in mean Cmax and AUC0-24” value is on record as “less than dose proportional”. Moreover, the “Respiratory Exchange Ratio (RER) compared to vehicle treated group” value in the series on C57BL6/J mice is given as “significant reduction in the RER”.

By Tmax is commonly meant the time at which the peak concentration occurs.
